# In patent publication US20020081574A1, “Methods for identifying inhibitors of helicase C virus” (priority 1996, published 2002):
# Columns and labels:
# [1] = target: T1, HCV NS3 RNA helicase (Hepatitis C virus genotype 1a, UniProt P27958); assay type: biochemical; settings: for helicase activity levels reduced when substituting for Mn^+2: divalent cation tested at 3 mM
# T1 construct: derived from the full length, native polypeptide (residues 1027-1657); made in house; host or cells: Spodoptera frugiperda Sf9 cells, recombinant baculovirus bacNS3-5B (polyprotein residues 1027-3011 expressed and processed)
# T1 sequence (P27958 1027-1657): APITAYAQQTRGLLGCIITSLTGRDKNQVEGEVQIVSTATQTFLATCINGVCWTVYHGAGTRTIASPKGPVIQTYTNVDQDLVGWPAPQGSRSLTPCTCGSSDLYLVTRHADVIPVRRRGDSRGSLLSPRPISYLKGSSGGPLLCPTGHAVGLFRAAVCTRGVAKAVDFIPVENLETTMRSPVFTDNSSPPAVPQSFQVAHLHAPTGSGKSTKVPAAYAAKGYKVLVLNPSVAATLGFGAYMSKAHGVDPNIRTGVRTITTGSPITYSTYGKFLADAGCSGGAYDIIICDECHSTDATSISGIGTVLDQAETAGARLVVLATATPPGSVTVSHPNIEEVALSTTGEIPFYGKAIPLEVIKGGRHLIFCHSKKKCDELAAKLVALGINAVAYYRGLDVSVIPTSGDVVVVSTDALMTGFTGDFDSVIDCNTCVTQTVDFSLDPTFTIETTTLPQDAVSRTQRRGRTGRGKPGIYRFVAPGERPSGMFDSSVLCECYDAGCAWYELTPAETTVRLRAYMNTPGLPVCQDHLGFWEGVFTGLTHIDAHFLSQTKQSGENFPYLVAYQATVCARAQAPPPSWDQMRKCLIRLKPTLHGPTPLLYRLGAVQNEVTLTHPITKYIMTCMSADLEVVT
# [2] = test system: HCV; settings: cited from earlier work
Compound,helicase activity levels reduced when substituting for Mn^+2 [1],effect of monovalent cations on HCV NS3 helicase activity [1],further results
[Ca+2] [Ca^+2],3 fold,–,–
[Cu+2] [Cu^+2],7 fold,–,–
[K+] [K^+],–,inhibit,–
[Na+] [Na^+],–,inhibit,–
[Zn+2] [Zn^+2],2 fold,–,–
interferon alpha [IFN-α],–,–,improved serum liver enzyme response ([2]; IFN treatment): 20-40 % of patients; sustained improvement of aminotransferase levels ([2]; responders): 10-20 % of patients
